System: patients with refractory metastatic colorectal cancer (mCRC)
Assay: PFS, OS and disease control in the training (evaluation) cohort of refractory mCRC patients receiving TAS-102 (n=52, Japan), by baseline characteristics, SNP genotype and toxicity
Assay type: in vivo, human
Conditions: for Overall Survival Median, months / Progression-Free Survival Median, months / Overall Survival HR / Progression-Free Survival HR / HR for OS / HR for PFS: evaluation cohort
Protocol: All patients underwent the treatment in salvage-line setting. […]
Genomic DNA was extracted from peripheral whole blood in patients of all cohorts using the QIAmp Kit (Qiagen, Valencia, Calif., USA) according to the manufacturer's protocol (www.qiagen.com). The candidate SNPs were genotyped using PCR-based direct DNA sequence analysis by ABI 3100A Capillary Genetic Analyzer and Sequencing Scanner v1.0 (Applied Biosystems). Amplification of extracted DNA was carried out using both forward and reverse primers for each gene polymorphism as shown in Table 1. […] The investigators analyzing SNPs were blinded to the clinical data of the study patients.
The primary endpoint in this study was progression-free survival (PFS), and the secondary endpoints were overall survival (OS) and disease control rate (DCR). PFS was calculated from the date of starting treatment to the first observation of disease progression or death from any cause. If a patient had no disease progression or death, PFS was censored at the date of last follow up. OS was calculated from the date of starting treatment until the date of death from any cause or the date of the last follow-up, at which point OS was censored. The disease control rate (DCR) was defined as the proportion of patients who achieved a stable disease (SD) or […] according to RECISTv1.1. Chi-square test was used to examine the difference in baseline patient characteristics among the three cohorts. Allelic distribution of all SNPs by ethnicity for deviation from Hardy-Weinberg equilibrium and the allelic frequencies of SNPs were tested using the Chi-square tests with one degree of freedom. The associations between candidate SNPs and disease control, and toxicities were examined using contingency tables and Fisher's exact test. The associations of SNPs with PFS and OS were analysed using Kaplan-Meier curves and the log-rank test. Because the true mode of inheritance of candidate SNPs was not established yet, a codominant or dominant genetic model if appropriate was considered.
All patients underwent the treatment in salvage-line setting. […] In all patients, adverse events were graded according to the Common Terminology Criteria for Adverse Events, version 4.0. […]
Genomic DNA was extracted from peripheral whole blood in patients of all cohorts using the QIAmp Kit (Qiagen, Valencia, Calif., USA) according to the manufacturer's protocol (www.qiagen.com). The candidate SNPs were tested using PCR-based direct DNA sequence analysis by ABI 3100A Capillary Genetic Analyzer and Sequencing Scanner v1.0 (Applied Biosystems). […] The investigators analyzing SNPs were blinded to the clinical data.
The primary endpoint in this study was progression-free survival (PFS), and the secondary endpoints were overall survival (OS) and disease control rate (DCR).

[1] = Performance status ECOG 1 vs ECOG 0, univariate
[2] = Peritoneal No vs Yes, univariate
[3] = Pre-chemo numbers ≥4 vs <4, univariate
[4] = Primary tumor resection No vs Yes, univariate
[5] = Prior EGFR No vs Yes, univariate
[6] = Prior REGORA No vs Yes, univariate
[7] = Prior bev No vs Yes, univariate
[8] = Tumor site Left vs Right, univariate
[9] = XRCC3 rs861539 G/A vs G/G, univariate
[10] = p21 rs1059234 Any C vs T/T, multivariable
[11] = p21 rs1059234 Any C vs T/T, univariate
[12] = p21 rs1059234 C/C vs T/T, multivariable
[13] = p21 rs1059234 C/C vs T/T, univariate
[14] = p21 rs1059234 T/C vs T/T, multivariable
[15] = p21 rs1059234 T/C vs T/T, univariate
[16] = p21 rs1801270 A/C vs A/A, multivariable
[17] = p21 rs1801270 A/C vs A/A, univariate

Trifluridine/tipiracil [TAS-102]
Overall Survival Median, months (Number of metastases ≤2): 8.3 months
Progression-Free Survival Median, months (Number of metastases ≤2): 2.7 months
Overall Survival Median, months (Performance status ECOG 0): 8.7 months
Progression-Free Survival Median, months (Performance status ECOG 0): 2.9 months
Overall Survival Median, months (Performance status ECOG 1): 7.2 months
Progression-Free Survival Median, months (Performance status ECOG 1): 2.7 months
Overall Survival HR [1]: 1.42
Progression-Free Survival HR [1]: 1.06
Overall Survival Median, months (Peritoneal No): 8.3 months
Progression-Free Survival Median, months (Peritoneal No): 2.3 months
Overall Survival HR [2]: 0.84
Progression-Free Survival HR [2]: 1.48
Overall Survival Median, months (Peritoneal Yes): 6.3 months
Progression-Free Survival Median, months (Peritoneal Yes): 3.1 months
Overall Survival Median, months (Pre-chemo numbers <4): 8.7 months
Progression-Free Survival Median, months (Pre-chemo numbers <4): 3.0 months
Overall Survival Median, months (Pre-chemo numbers ≥4): 6.3 months
Progression-Free Survival Median, months (Pre-chemo numbers ≥4): 2.1 months
Overall Survival HR [3]: 2.48
Progression-Free Survival HR [3]: 1.73
Overall Survival Median, months (Primary tumor resection No): 8.1+ months
Progression-Free Survival Median, months (Primary tumor resection No): 2.1 months
Overall Survival HR [4]: 1.72
Progression-Free Survival HR [4]: 1.39
Overall Survival Median, months (Primary tumor resection Yes): 8.1 months
Progression-Free Survival Median, months (Primary tumor resection Yes): 3.0 months
Overall Survival Median, months (Prior EGFR No): 15.6+ months
Progression-Free Survival Median, months (Prior EGFR No): 3.7 months
Overall Survival HR [5]: 0.35
Progression-Free Survival HR [5]: 0.49
Overall Survival Median, months (Prior EGFR Yes): 6.3 months
Progression-Free Survival Median, months (Prior EGFR Yes): 2.1 months
Overall Survival Median, months (Prior REGORA No): 14.8+ months
Progression-Free Survival Median, months (Prior REGORA No): 3.7 months
Overall Survival HR [6]: 0.50
Progression-Free Survival HR [6]: 0.65
Overall Survival Median, months (Prior REGORA Yes): 8.1 months
Progression-Free Survival Median, months (Prior REGORA Yes): 2.1 months
Overall Survival Median, months (Prior bev No): 4.1 months
Progression-Free Survival Median, months (Prior bev No): 2.5 months
Overall Survival HR [7]: 3.43
Progression-Free Survival HR [7]: 1.86
Overall Survival Median, months (Prior bev Yes): 8.3 months
Progression-Free Survival Median, months (Prior bev Yes): 2.9 months
Overall Survival Median, months (Sex Female): 8.3 months
Progression-Free Survival Median, months (Sex Female): 3.4 months
Overall Survival HR (Sex Female vs Male, univariate): 0.47
Progression-Free Survival HR (Sex Female vs Male, univariate): 0.60
Overall Survival Median, months (Sex Male): 4.9 months
Progression-Free Survival Median, months (Sex Male): 2.1 months
Overall Survival Median, months (Tumor site Left): 8.1 months
Progression-Free Survival Median, months (Tumor site Left): 2.9 months
Overall Survival HR [8]: 0.97
Progression-Free Survival HR [8]: 1.30
Overall Survival Median, months (Tumor site Right): 8.7 months
Progression-Free Survival Median, months (Tumor site Right): 3.3 months
HR for OS (XRCC3 rs861539, multivariable): 0.31
HR for PFS (XRCC3 rs861539, multivariable): 0.52
HR for OS [9]: 0.25
HR for PFS [9]: 0.44
OS median, months (95% CI) (p21 rs1059234 Any C): 12.4 (5.4, 15.6+) months
PFS median, months (95% CI) (p21 rs1059234 Any C): 2.7 (2.1, 3.5) months
OS HR (95% CI)‡ [10]: 0.50 (0.20, 1.25)
PFS HR (95% CI) ‡ [10]: 0.74 (0.37, 1.49)
OS HR (95% CI)† [11]: 0.64 (0.27, 1.56)
PFS HR (95% CI) † [11]: 0.88 (0.44, 1.74)
OS median, months (95% CI) (p21 rs1059234 C/C): 6.3 (2.7, 10.7+) months
PFS median, months (95% CI) (p21 rs1059234 C/C): 2.9 (1.6, 4.9) months
OS HR (95% CI)‡ [12]: 0.67 (0.21, 2.12)
PFS HR (95% CI) ‡ [12]: 0.73 (0.30, 1.74)
OS HR (95% CI)† [13]: 0.76 (0.25, 2.35)
PFS HR (95% CI) † [13]: 0.95 (0.42, 2.16)
OS median, months (95% CI) (p21 rs1059234 T/C): 12.4 (5.3, 15.6+) months
PFS median, months (95% CI) (p21 rs1059234 T/C): 2.7 (2.1, 3.5) months
OS HR (95% CI)‡ [14]: 0.42 (0.15, 1.19)
PFS HR (95% CI) ‡ [14]: 0.75 (0.35, 1.60)
OS HR (95% CI)† [15]: 0.59 (0.22, 1.57)
PFS HR (95% CI) † [15]: 0.84 (0.40, 1.76)
OS median, months (95% CI) (p21 rs1059234 T/T): 7.2 (3.3, 8.7) months
PFS median, months (95% CI) (p21 rs1059234 T/T): 3.3 (1.6, 4.1) months
OS median, months (95% CI) (p21 rs1801270 A/A): 7.2 (3.3, 8.7) months
PFS median, months (95% CI) (p21 rs1801270 A/A): 3.3 (1.6, 4.1) months
OS median, months (95% CI) (p21 rs1801270 A/C): 12.4 (5.3, 15.6+) months
PFS median, months (95% CI) (p21 rs1801270 A/C): 2.3 (1.8, 3.5) months
OS HR (95% CI)‡ [16]: 0.39 (0.13, 1.11)
PFS HR (95% CI) ‡ [16]: 0.72 (0.34, 1.55)
OS HR (95% CI)† [17]: 0.53 (0.19, 1.47)
PFS HR (95% CI) † [17]: 0.82 (0.39, 1.74)
OS median, months (95% CI) (p21 rs1801270 Any C): 12.4 (5.4, 15.6+) months
PFS median, months (95% CI) (p21 rs1801270 Any C): 2.7 (2.1, 3.5) months
OS HR (95% CI)‡ (p21 rs1801270 Any C vs A/A, multivariable): 0.50 (0.20, 1.25)
